The source of these data is patent publication US11066369B2, “N-(pyridin-2-yl)pyridine-sulfonamide derivatives and their use in the treatment of disease” (Novartis AG, priority 2016, dated 2021).

Counter-ions that a name gives are not always drawn.

The target of test [1] is T1, delF508-CFTR (Homo sapiens, UniProt P13569, DEL508-508).
T1 construct: functional activity of the CFTR channel (Chloride ion transport) in patient derived primary human bronchial epithelial cells; host or cells: patient-derived primary human bronchial epithelial cells (delF508-CFTR)
In words: Measurement of delF508-CFTR functional activity in primary human bronchial epithelial cells (HBECs) using Multi-Transepithelial Clamp Circuit (MTECC-24) assay. It counts as cell-based. The conditions noted are these: primary CF HBECs; for MTECC24 CFHBEC- Amax %: test compound added 24h before assay plus potentiator, relative to reference combination (2 μM corrector + 0.5 μM potentiator); for EC50: test compound added 24h before assay, in the presence of potentiator, mean of at least two replicates, read-out: MTECC24 CFHBEC- EC50. A digest of the protocol: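 Compound tested as 10-point, 1-in-3 concentration response (0.1% or 0.2% DMSO), 24 h basolateral pre-incubation, then re-added to both sides. MTECC-24 measured Ieq in ALI-differentiated primary delF508 bronchial cells after amiloride, forskolin activation, potentiator and INH-172 block; data normalized to DMSO baseline, EC50 fitted.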

Test [2] has as its target T2, horseradish peroxidase (HRP) tagged delF508-CFTR (Homo sapiens, UniProt P13569, DEL508-508).
T2 construct: expressed in transfected cells
In words: Measurement of delF508-CFTR-HRP surface expression in CFBE41o- cells.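 On DelF508-CFTR-HRP Amax %: percent efficacy relative to reference corrector lumacaftor.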 It counts as cell-based. The settings on record: delF508-CFTR-HRP surface expression, CFBE41o- cells; for Emax: read-out: DelF508-CFTR-HRP Amax %; for EC50: read-out: DelF508-CFTR-HRP EC50. A digest of the protocol:
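Surface-trafficked delF508-CFTR detected via extracellular HRP tag, read as luminescence from a membrane-impermeant substrate in CFBE41o- cells. Cells pre-induced 48h with 500 ng/mL doxycycline, then exposed 24h at 37° C to a 10-point, 3-fold dilution series from 10 μM (DMSO ≤0.5%). Triplicate dose-responses fitted logistically for EC50 after per-plate normalization; fold change versus reference compound.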

T2 sequence (P13569 with tags, fused parts or gaps DEL508-508): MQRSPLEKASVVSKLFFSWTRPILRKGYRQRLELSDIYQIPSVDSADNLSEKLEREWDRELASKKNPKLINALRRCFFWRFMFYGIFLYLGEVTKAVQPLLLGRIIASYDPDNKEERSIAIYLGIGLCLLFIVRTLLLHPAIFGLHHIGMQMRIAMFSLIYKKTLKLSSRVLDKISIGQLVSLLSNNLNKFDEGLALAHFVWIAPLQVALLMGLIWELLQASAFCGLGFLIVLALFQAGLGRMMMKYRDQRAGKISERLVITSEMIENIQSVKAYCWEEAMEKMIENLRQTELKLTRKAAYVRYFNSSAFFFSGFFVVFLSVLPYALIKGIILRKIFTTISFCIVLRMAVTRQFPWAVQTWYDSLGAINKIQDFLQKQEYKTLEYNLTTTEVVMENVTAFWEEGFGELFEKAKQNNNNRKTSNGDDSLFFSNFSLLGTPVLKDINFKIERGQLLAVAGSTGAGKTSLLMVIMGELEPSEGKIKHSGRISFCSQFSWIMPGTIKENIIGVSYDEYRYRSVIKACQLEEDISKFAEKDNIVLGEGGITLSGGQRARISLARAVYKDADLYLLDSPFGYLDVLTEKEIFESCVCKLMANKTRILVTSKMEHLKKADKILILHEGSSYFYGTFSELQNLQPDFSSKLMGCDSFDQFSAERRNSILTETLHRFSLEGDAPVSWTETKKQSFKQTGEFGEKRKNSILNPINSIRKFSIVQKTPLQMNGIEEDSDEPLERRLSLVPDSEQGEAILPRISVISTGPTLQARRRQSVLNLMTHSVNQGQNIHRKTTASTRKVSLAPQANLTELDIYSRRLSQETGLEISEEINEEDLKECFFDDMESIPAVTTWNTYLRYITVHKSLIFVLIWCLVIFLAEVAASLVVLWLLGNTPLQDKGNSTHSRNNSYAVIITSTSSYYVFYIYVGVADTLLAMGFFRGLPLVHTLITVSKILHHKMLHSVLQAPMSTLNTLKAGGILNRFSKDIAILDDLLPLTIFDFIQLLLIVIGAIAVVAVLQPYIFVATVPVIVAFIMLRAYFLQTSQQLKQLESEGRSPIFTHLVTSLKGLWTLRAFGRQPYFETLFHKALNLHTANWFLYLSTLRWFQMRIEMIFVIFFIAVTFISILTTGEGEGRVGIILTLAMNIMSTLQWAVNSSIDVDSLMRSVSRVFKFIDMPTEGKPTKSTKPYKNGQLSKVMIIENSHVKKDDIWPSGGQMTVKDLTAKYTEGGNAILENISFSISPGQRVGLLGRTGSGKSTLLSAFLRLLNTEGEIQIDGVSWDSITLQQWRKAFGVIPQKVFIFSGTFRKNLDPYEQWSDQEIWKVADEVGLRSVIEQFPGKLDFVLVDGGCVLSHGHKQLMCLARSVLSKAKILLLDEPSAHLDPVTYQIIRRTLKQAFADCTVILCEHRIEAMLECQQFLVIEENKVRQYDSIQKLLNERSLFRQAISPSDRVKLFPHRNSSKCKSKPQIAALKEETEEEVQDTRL
T1 sequence (P13569 with tags, fused parts or gaps DEL508-508): as above

Take `Cc1c(F)cccc1-c1nc(NS(=O)(=O)c2cccc(N3CC(C)(O)C3)n2)ccc1C(F)(F)F` [Example 215, N-(6-(3-fluoro-2-methylphenyl)-5-(trifluoromethyl)pyridin-2-yl)-6-(3-hydroxy-3-methylazetidin-1-yl)pyridine-2-sulfonamide]: in test [1], the “MTECC24 CFHBEC- Amax %” value stood at 66.4% and the EC50 came to 4.7 nM. For the same molecule, in test [2], the Emax turned out to be 303% and the EC50 was found to be 2100 nM.

`Cc1cccc(C)c1-c1nc(NS(=O)(=O)c2cccc(N[C@H]3C[C@@H](O)C3)n2)ccc1Cl` [Example 286, N-[5-chloro-6-(2,6-dimethylphenyl)pyridin-2-yl]-6-{[(1s,3s)-3-hydroxycyclobutyl]amino}pyridine-2-sulfonamide]: in test [1], the “MTECC24 CFHBEC- Amax %” value is 153.1% and the EC50 was found to be 23.9 nM. Moreover, in test [2], the Emax was determined as 847% and the EC50 is 1490 nM.

`Cc1cccc(C)c1-c1nc(NS(=O)(=O)c2cccnc2N)ccc1Cl` [Example 74, 2-amino-N-(5-chloro-6-(2,6-dimethylphenyl)pyridin-2-yl)pyridine-3-sulfonamide]: in test [1], the “MTECC24 CFHBEC- Amax %” value is 67.3% and the EC50 came to 283 nM. Besides, in test [2], the Emax was found to be 158% and the EC50 was found to be 2580 nM.

Turning to `CC1(C(=O)O)CCN(c2cccc(S(=O)(=O)Nc3ccc(C(F)(F)F)c(-c4ccccc4Cl)n3)n2)CC1` [Example 238, 1-(6-(N-(6-(2-chlorophenyl)-5-(trifluoromethyl)pyridin-2-yl)sulfamoyl)pyridin-2-yl)-4-methylpiperidine-4-carboxylic Acid], in test [1], the “MTECC24 CFHBEC- Amax %” value is on record as 59.0% and the EC50 came out at 19.6 nM. Besides, in test [2], the Emax is 426% and the EC50 turned out to be 3460 nM.

`Cc1ccc(F)cc1-c1nc(NS(=O)(=O)c2cccc(N[C@@H]3COCC[C@H]3O)n2)ccc1Cl` [Example 278, N-[5-chloro-6-(5-fluoro-2-methylphenyl)pyridin-2-yl]-6-{[(3R,4R)-4-hydroxyoxan-3-yl]amino}pyridine-2-sulfonamide]: in test [1], the “MTECC24 CFHBEC- Amax %” value was found to be 73.4% and the EC50 came to 5.4 nM. For the same molecule, the EC50 in test [2] was 1100 nM.

Take `Nc1cccc(S(=O)(=O)Nc2ccc(Cl)c(-c3ccccc3C(F)(F)F)n2)n1` [Example 55, 6-amino-N-(5-chloro-6-(2-(trifluoromethyl)phenyl)pyridin-2-yl)pyridine-2-sulfonamide]: in test [1], the “MTECC24 CFHBEC- Amax %” value was 86.7% and the EC50 came to 15.5 nM. In addition, in test [2], the Emax was 305% and the EC50 worked out at 1700 nM.

Take `Nc1cccc(S(=O)(=O)Nc2ccc(Cl)c(-c3c(F)cccc3F)n2)n1` [Example 80, 6-amino-N-(5-chloro-6-(2,6-difluorophenyl)pyridin-2-yl)pyridine-2-sulfonamide]: in test [1], the “MTECC24 CFHBEC- Amax %” value worked out at 50.7% and the EC50 was 96 nM. Further, in test [2], the Emax is 137% and the EC50 worked out at 2280 nM.

As to `Cc1ccccc1-c1nc(NS(=O)(=O)c2cccc(O[C@@H]3COCC3(C)O)n2)ccc1C(F)(F)F` (mixture of isomers) [Example 293, rac-6-{[(3RR,4SR)-4-hydroxy-4-methyloxolan-3-yl]oxy}-N-[6-(2-methylphenyl)-5-(trifluoromethyl)pyridin-2-yl]pyridine-2-sulfonamide], in test [1], the “MTECC24 CFHBEC- Amax %” value amounted to 78.6% and the EC50 was 22 nM. Besides, in test [2], the Emax came out at 590% and the EC50 came out at 1960 nM.

In the case of `Cc1c(F)cccc1-c1nc(NS(=O)(=O)c2cccc(N3CCC[C@H](C(=O)O)C3)n2)ccc1C(F)(F)F` [Example 360, (3S)-1-(6-{[6-(3-fluoro-2-methylphenyl)-5-(trifluoromethyl)pyridin-2-yl]sulfamoyl}pyridin-2-yl)piperidine-3-carboxylic Acid], in test [1], the “MTECC24 CFHBEC- Amax %” value worked out at 57.5% and the EC50 was determined as 47.4 nM. Moreover, in test [2], the Emax was found to be 546% and the EC50 was 2110 nM.

For the molecule `Cc1ccccc1-c1nc(NS(=O)(=O)c2cccc(N3CCC4(CC[C@@H]4N)CC3)n2)ccc1C(F)(F)F` [Example 306, (S)-6-(1-amino-7-azaspiro[3.5]nonan-7-yl)-N-(6-(o-tolyl)-5-(trifluoromethyl)pyridin-2-yl)pyridine-2-sulfonamide], in test [1], the “MTECC24 CFHBEC- Amax %” value is reported as 88.1% and the EC50 amounted to 31.5 nM. In test [2], the Emax amounted to 418% and the EC50 stood at 3050 nM.

As for `Cc1ccccc1-c1nc(NS(=O)(=O)c2cccc(N3CCN[C@@H](CO)C3)n2)ccc1C(F)(F)F` [Example 165, (R)-6-(3-(hydroxymethyl)piperazin-1-yl)-N-(6-(o-tolyl)-5-(trifluoromethyl)pyridin-2-yl)pyridine-2-sulfonamide hydrochloride], in test [1], the “MTECC24 CFHBEC- Amax %” value is reported as 50.8% and the EC50 was found to be 342 nM. For the same molecule, in test [2], the Emax stood at 401% and the concentration giving a half-maximal response (EC50) stood at 2900 nM.

Turning to `O=S(=O)(Nc1ccc(C(F)(F)F)c(-c2ccccc2C(F)(F)F)n1)c1ccnc(N2CC(O)C2)c1` [Example 325, 2-(3-hydroxyazetidin-1-yl)-N-(5-(trifluoromethyl)-6-(2-(trifluoromethyl)phenyl)pyridin-2-yl)pyridine-4-sulfonamide], in test [1], the “MTECC24 CFHBEC- Amax %” value amounted to 60.1% and the EC50 was determined as 15.4 nM. Further, in test [2], the Emax was determined as 257% and the EC50 was 2400 nM.

`Cc1c(F)cccc1-c1nc(NS(=O)(=O)c2cccc(N3CCC(C)(C(=O)O)CC3)n2)ccc1Cl` [Example 253, 1-(6-(N-(5-chloro-6-(3-fluoro-2-methylphenyl)pyridin-2-yl)sulfamoyl)pyridin-2-yl)-4-methylpiperidine-4-carboxylic Acid]: in test [1], the “MTECC24 CFHBEC- Amax %” value turned out to be 67.1% and the EC50 worked out at 27.8 nM. In addition, in test [2], the Emax was determined as 203% and the EC50 is 2290 nM.

`Cc1ccc(F)cc1-c1nc(NS(=O)(=O)c2ccnc(N3CCOC[C@H]3C)c2)ccc1C(F)(F)F` [Example 321, (R)—N-(6-(5-fluoro-2-methylphenyl)-5-(trifluoromethyl)pyridin-2-yl)-2-(3-methylmorpholino)pyridine-4-sulfonamide]: in test [1], the “MTECC24 CFHBEC- Amax %” value was found to be 49.1% and the EC50 was determined as 18.3 nM. Besides, in test [2], the Emax was 413% and the EC50 worked out at 1720 nM.

For `Cc1cccc(C)c1-c1nc(NS(=O)(=O)c2cccc(N3CCC(C(=O)O)CC3)n2)ccc1Cl` [Example 247, 1-(6-(N-(5-chloro-6-(2,6-dimethylphenyl)pyridin-2-yl)sulfamoyl)pyridin-2-yl)piperidine-4-carboxylic Acid], in test [1], the “MTECC24 CFHBEC- Amax %” value is 57.0% and the EC50 stood at 191 nM. Also, in test [2], the Emax was found to be 493% and the EC50 was 3090 nM.

In the case of `COc1ccc(Cl)c(-c2nc(NS(=O)(=O)c3cccc(N4CCC(C)(C(=O)O)CC4)n3)ccc2C(F)(F)F)c1` [Example 241, 1-(6-(N-(6-(2-chloro-5-methoxyphenyl)-5-(trifluoromethyl)pyridin-2-yl)sulfamoyl)pyridin-2-yl)-4-methylpiperidine-4-carboxylic Acid], in test [1], the “MTECC24 CFHBEC- Amax %” value came out at 48.9% and the EC50 turned out to be 12.4 nM. For the same molecule, in test [2], the Emax is 510% and the EC50 was determined as 2890 nM.
